The first assay addresses T1, vanilloid receptor 1 (VR1/TRPV1 receptor) (Homo sapiens, UniProt Q8NER1).
T1 construct: expressed in transfected cells; host or cells: CHO K1
Put plainly: Functional testing on the vanilloid receptor 1 (VR1/TRPV1): FLIPR Ca2+ influx assay, displacement of capsaicin. On the set-up: key to mode of action at VR1/TRPV1 (AG, pAG, NE), Cap: AG=agonist; NE=no effect; pAG=partial agonist. In kind it is cell-based, human being. Particulars: 5 μM compound; capsaicin (Cap); human being; read-out: inhibition (as a percentage) at the concentration after @, Cap. Here is the method:
Furthermore, preference may be given to compounds according to the invention that cause a 50 percent displacement of capsaicin, which is present at a concentration of 100 nM, in a FLIPR assay with CHO K1 cells which were transfected with the human VR1 gene at a concentration of less than 2,000 nM, preferably less than 1,000 nM, particularly preferably less than 300 nM, most particularly preferably less than 100 nM, even more preferably less than 75 nM, additionally preferably less than 50 nM, most preferably less than 10 nM.
In the process, the Ca^2+ influx is quantified in the FLIPR assay with the aid of a Ca^2+-sensitive dye (type Fluo-4, Molecular Probes Europe BV, Leiden, the Netherlands) in a fluorescent imaging plate reader (FLIPR, Molecular Devices, Sunnyvale, USA), as described hereinafter. […]
The number of cells in the suspension is set to 3×10^5 per mL and 150 μL of this suspension are in each case introduced into a recess in the cell culture plates coated as described hereinbefore. In the incubator the plates are left for two to three days at 37° C., 5% by volume of CO2 and 95% relative humidity. Subsequently, the cells are loaded with 2 μM of Fluo-4 and 0.01% by volume of Pluronic F127 (Molecular Probes Europe BV, Leiden, the Netherlands) in HBSS buffer (Hank's buffered saline solution, Gibco Invitrogen GmbH, Karlsruhe, Germany) for 30 min at 37° C., washed 3 times with HBSS buffer and after further incubation for 15 minutes at room temperature used for Ca^2+ measurement in a FLIPR assay. The Ca^2+-dependent fluorescence is in this case measured before and after the addition of substances (λex=488 nm, λem=540 nm). Quantification is carried out by measuring the highest fluorescence intensity (FC, fluorescence counts) over time.
The FLIPR protocol consists of 2 substance additions. First the compounds to be tested (10 μM) are pipetted onto the cells and the Ca^2+ influx is compared with the control (capsaicin 10 μM). This provides the result in % activation based on the Ca^2+ signal after the addition of 10 μM of capsaicin (CP). After 5 minutes' incubation, 100 nM of capsaicin are applied and the Ca^2+ influx is also determined. Desensitising agonists and antagonists lead to suppression of the Ca^2+ influx. The % inhibition is calculated compared to the maximum achievable inhibition with 10 μM of capsazepine. Triple analyses (n=3) are carried out and repeated in at least 3 independent experiments (N=4).
Starting from the percentage displacement caused by different concentrations of the compounds to be tested of general formula I, IC50 inhibitory concentrations which cause a 50-percent displacement of capsaicin were calculated. Ki values for the test substances were obtained by conversion by means of the Cheng-Prusoff equation (Cheng, Prusoff; Biochem. Pharmacol. 22, 3099-3108, 1973).
The affinity of the compounds according to the invention for the vanilloid receptor 1 (VR1/TRPV1 receptor) was determined as described above (pharmacological method I).
T1 sequence (Q8NER1 whole entry): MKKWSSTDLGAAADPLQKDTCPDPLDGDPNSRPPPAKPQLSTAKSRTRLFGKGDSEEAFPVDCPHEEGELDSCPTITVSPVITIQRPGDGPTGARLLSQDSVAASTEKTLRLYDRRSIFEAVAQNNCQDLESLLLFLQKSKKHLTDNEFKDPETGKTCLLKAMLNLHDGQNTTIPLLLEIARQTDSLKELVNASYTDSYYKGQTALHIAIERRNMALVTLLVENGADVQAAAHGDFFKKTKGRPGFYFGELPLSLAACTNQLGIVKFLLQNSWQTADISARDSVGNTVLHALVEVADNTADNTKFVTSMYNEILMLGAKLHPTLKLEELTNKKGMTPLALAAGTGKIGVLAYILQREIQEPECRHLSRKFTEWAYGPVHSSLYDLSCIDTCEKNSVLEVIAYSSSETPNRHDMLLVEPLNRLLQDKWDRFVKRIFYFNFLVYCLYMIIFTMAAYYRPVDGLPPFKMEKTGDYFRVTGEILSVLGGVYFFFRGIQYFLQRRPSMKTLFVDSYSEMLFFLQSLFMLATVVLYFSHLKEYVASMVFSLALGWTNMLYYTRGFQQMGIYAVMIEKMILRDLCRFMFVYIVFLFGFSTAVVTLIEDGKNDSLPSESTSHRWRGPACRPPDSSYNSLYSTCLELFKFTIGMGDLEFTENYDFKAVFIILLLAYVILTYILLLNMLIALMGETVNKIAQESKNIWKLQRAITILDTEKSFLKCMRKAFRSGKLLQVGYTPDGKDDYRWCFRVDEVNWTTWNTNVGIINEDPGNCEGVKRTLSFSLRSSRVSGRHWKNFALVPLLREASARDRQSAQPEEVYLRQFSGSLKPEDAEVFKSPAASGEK
Consider `COCCNc1ccc(NC(=O)NCc2cc(C(C)(C)C)nn2-c2cccc(Cl)c2)cn1` [Example 68, 1-((3-tert-butyl-1-(3-chlorophenyl)-1H-pyrazol-5-yl)methyl)-3-(6-(2-methoxyethylamino)pyridin-3-yl)urea], for which the inhibition at 5 µM came out at 73%.
On the same count and under the same terms, to `COCCN(C)c1ccc(C(C)C(=O)NCc2cc(C(F)(F)F)nn2-c2cccc(Cl)c2)cn1` (stereo not drawn) [Example 88, N-((1-(3-chlorophenyl)-3-(trifluoromethyl)-1H-pyrazol-5-yl)methyl)-2-(6-((2-methoxyethyl)(methyl)amino)pyridin-3-yl)propanamide] belongs 55%.
Same read-out and setting: under `COCCN(C)c1ccc(NC(=O)NCc2cc(C(F)(F)F)nn2-c2cccc(Cl)c2)cn1` [Example 89, 1-((1-(3-chlorophenyl)-3-(trifluoromethyl)-1H-pyrazol-5-yl)methyl)-3-(6-((2-methoxyethyl)(methyl)amino)pyridin-3-yl)urea] stands 31%; under `CC(C(=O)NCc1cc(C(C)(C)C)nn1-c1cccc(Cl)c1)c1ccc(NC(=O)c2ccccc2)nc1` (stereo not drawn) [Example 91, N-(5-(1-((3-tert-butyl-1-(3-chlorophenyl)-1H-pyrazol-5-yl)methylamino)-1-oxopropan-2-yl)pyridin-2-yl)benzamide], 98%.

Staying with this assay, now noted: capsaicin (Cap) as stimulus; Ki from IC50 by Cheng-Prusoff; read-out: (f) Ki (human being) [nM] Cap.
Broadly, the Ki is a dissociation constant, usually derived from enzyme kinetics or from competition with a known ligand. `CC(C(=O)NCc1cc(C(C)(C)C)nn1-c1cccc(Cl)c1)c1cnc(C(=O)Nc2ccc(F)cc2)nc1` (stereo not drawn) [Example 66, 5-(1-((3-tert-butyl-1-(3-chlorophenyl)-1H-pyrazol-5-yl)methylamino)-1-oxopropan-2-yl)-N-(4-fluorophenyl)pyrimidine-2-carboxamide]: the Ki is 3 nM.
With `CC(C(=O)NCc1cc(C(C)(C)C)nn1-c1cccc(Cl)c1)c1cnc(C(=O)Nc2ccc(C(F)(F)F)cc2)nc1` (stereo not drawn) [Example 67, 5-(1-((3-tert-butyl-1-(3-chlorophenyl)-1H-pyrazol-5-yl)methylamino)-1-oxopropan-2-yl)-N-(4-(trifluoromethyl)phenyl)pyrimidine-2-carboxamide], the inhibitory constant (Ki) came out at 13 nM.
For `COCCNc1ccc(NC(=O)NCc2cc(C(F)(F)F)nn2-c2cccc(Cl)c2)cn1` [Example 69, 1-((1-(3-chlorophenyl)-3-(trifluoromethyl)-1H-pyrazol-5-yl)methyl)-3-(6-(2-methoxyethylamino)pyridin-3-yl)urea], the Ki worked out at 51 nM.
Same read-out and setting: under `CC(C)(C)c1cc(CNC(=O)Nc2ccc(NCCO)nc2)n(-c2cccc(Cl)c2)n1` [Example 70, 1-((3-tert-butyl-1-(3-chlorophenyl)-1H-pyrazol-5-yl)methyl)-3-(6-(2-hydroxyethylamino)pyridin-3-yl)urea] stands 3 nM.
As to `O=C(NCc1cc(C(F)(F)F)nn1-c1cccc(Cl)c1)Nc1ccc(NCCO)nc1` [Example 71, 1-((1-(3-chlorophenyl)-3-(trifluoromethyl)-1H-pyrazol-5-yl)methyl)-3-(6-(2-hydroxyethylamino)pyridin-3-yl)urea], the Ki stood at 8 nM.
As to `O=C(NCc1cc(C2CC2)nn1-c1cccc(Cl)c1)Nc1ccc(NCCO)nc1` [Example 72, 1-((1-(3-chlorophenyl)-3-cyclopropyl-1H-pyrazol-5-yl)methyl)-3-(6-(2-hydroxyethylamino)pyridin-3-yl)urea], the inhibition constant Ki worked out at 17 nM.
Take `O=C(NCc1cc(C(F)(F)F)nn1-c1ccc(F)c(F)c1)Nc1ccc(NCCO)nc1` [Example 79, 1-((1-(3,4-difluorophenyl)-3-(trifluoromethyl)-1H-pyrazol-5-yl)methyl)-3-(6-(2-hydroxyethylamino)pyridin-3-yl)urea]: the Ki amounted to 26 nM.
`Cc1cccc(-n2nc(C(F)(F)F)cc2CNC(=O)Nc2ccc(NCCO)nc2)c1` [Example 81, 1-(6-(2-hydroxyethylamino)pyridin-3-yl)-3-((1-m-tolyl-3-(trifluoromethyl)-1H-pyrazol-5-yl)methyl)urea]: the Ki worked out at 12 nM.
The same measure, in the same setting: to `CN(CCO)c1ccc(NC(=O)NCc2cc(C(C)(C)C)nn2-c2cccc(Cl)c2)cn1` [Example 87, 1-((3-tert-butyl-1-(3-chlorophenyl)-1H-pyrazol-5-yl)methyl)-3-(6-((2-hydroxyethyl)(methyl)amino)pyridin-3-yl)urea] belongs 17 nM; to `CN(CCO)c1ccc(NC(=O)NCc2cc(C(F)(F)F)nn2-c2cccc(Cl)c2)cn1` [Example 90, 1-((1-(3-chlorophenyl)-3-(trifluoromethyl)-1H-pyrazol-5-yl)methyl)-3-(6-((2-hydroxyethyl)(methyl)amino)pyridin-3-yl)urea], 44 nM; to `CC(C(=O)NCc1cc(C(F)(F)F)nn1-c1cccc(Cl)c1)c1ccc(NC(=O)c2ccccc2)nc1` (stereo not drawn) [Example 92, N-(5-(1-((1-(3-chlorophenyl)-3-(trifluoromethyl)-1H-pyrazol-5-yl)methylamino)-1-oxopropan-2-yl)pyridin-2-yl)benzamide], 26 nM.
As to `CC(C(=O)NCc1cc(C(C)(C)C)nn1-c1cccc(Cl)c1)c1ccc(NC(=O)c2ccc(F)cc2)nc1` (stereo not drawn) [Example 93, N-(5-(1-((3-tert-butyl-1-(3-chlorophenyl)-1H-pyrazol-5-yl)methylamino)-1-oxopropan-2-yl)pyridin-2-yl)-4-fluorobenzamide], the inhibitory constant (Ki) amounted to 2 nM.
Same read-out and setting: under `CC(C(=O)NCc1cc(C(F)(F)F)nn1-c1cccc(Cl)c1)c1ccc(NC(=O)c2ccc(F)cc2)nc1` (stereo not drawn) [Example 94, N-(5-(1-((1-(3-chlorophenyl)-3-(trifluoromethyl)-1H-pyrazol-5-yl)methylamino)-1-oxopropan-2-yl)pyridin-2-yl)-4-fluorobenzamide] stands 4 nM; under `CC(C(=O)NCc1cc(C(C)(C)C)nn1-c1cccc(Cl)c1)c1ccc(NC(=O)c2ccc(Cl)cc2)nc1` (stereo not drawn) [Example 95, N-(5-(1-((3-tert-butyl-1-(3-chlorophenyl)-1H-pyrazol-5-yl)methylamino)-1-oxopropan-2-yl)pyridin-2-yl)-4-chlorobenzamide], 2 nM; under `CC(C(=O)NCc1cc(C(F)(F)F)nn1-c1cccc(Cl)c1)c1ccc(NC(=O)c2ccc(Cl)cc2)nc1` (stereo not drawn) [Example 96, 4-chloro-N-(5-(1-((1-(3-chlorophenyl)-3-(trifluoromethyl)-1H-pyrazol-5-yl)methylamino)-1-oxopropan-2-yl)pyridin-2-yl)benzamide], 3 nM.
Same read-out and setting: to `CC(C(=O)NCc1cc(C(C)(C)C)nn1-c1cccc(Cl)c1)c1ccc(NS(C)(=O)=O)nc1` (stereo not drawn) [Example 98, N-((3-tert-butyl-1-(3-chlorophenyl)-1H-pyrazol-5-yl)methyl)-2-(6-(methylsulfonamido)pyridin-3-yl)propanamide] belongs 8 nM; to `CC(C(=O)NCc1cc(C(F)(F)F)nn1-c1cccc(Cl)c1)c1ccc(NS(C)(=O)=O)nc1` (stereo not drawn) [Example 99, N-((1-(3-chlorophenyl)-3-(trifluoromethyl)-1H-pyrazol-5-yl)methyl)-2-(6-(methylsulfonamido)pyridin-3-yl)propanamide], 11 nM; to `CC(C(=O)NCc1cc(C(F)(F)F)nn1-c1cccc(F)c1)c1ccc(NS(C)(=O)=O)nc1` (stereo not drawn) [Example 100, N-((1-(3-fluorophenyl)-3-(trifluoromethyl)-1H-pyrazol-5-yl)methyl)-2-(6-(methylsulfonamido)pyridin-3-yl)propanamide], 37 nM.

Still in this assay, the particulars now being: capsaicin (Cap); human being.
Take `COCCNc1ccc(NC(=O)NCc2cc(C(C)(C)C)nn2-c2cccc(Cl)c2)cn1` [Example 68, 1-((3-tert-butyl-1-(3-chlorophenyl)-1H-pyrazol-5-yl)methyl)-3-(6-(2-methoxyethylamino)pyridin-3-yl)urea]: the “mode of action at VR1/TRPV1 (AG, pAG, NE), Cap” value was “AG”.
On the same count and under the same terms, under `CC(C(=O)NCc1cc(C(C)(C)C)nn1-c1cccc(Cl)c1)c1ccc(NC(=O)c2ccccc2)nc1` (stereo not drawn) [Example 91, N-(5-(1-((3-tert-butyl-1-(3-chlorophenyl)-1H-pyrazol-5-yl)methylamino)-1-oxopropan-2-yl)pyridin-2-yl)benzamide] stands “AG”.

Values taken from US20130029962A1, “Substituted Heteroaromatic Pyrazole-Containing Carboxamide and Urea Compounds as Vanilloid Receptor Ligands” (Gruenenthal GmbH, priority 2011, published 2013).
